Reference: patent US11851406B2, “Positive allosteric modulators of the muscarinic acetylcholine receptor M1” (Vanderbilt University, priority 2018, dated 2023)
pEC50: −log10 of the molar value.

Tests used:
human mAChR M1 [1] = biological target: T1, human mAChR M1 (Homo sapiens, UniProt P11229); assay: mAChR M1 cell-based functional assay (calcium mobilization), agonist activity upon compound addition alone; conditions: CHO-K1 cells expressing hM1; for pEC50: calcium mobilization upon compound addition, no acetylcholine; for Emax: compound alone, relative to the maximum for acetylcholine
T1 sequence (P11229 1-460): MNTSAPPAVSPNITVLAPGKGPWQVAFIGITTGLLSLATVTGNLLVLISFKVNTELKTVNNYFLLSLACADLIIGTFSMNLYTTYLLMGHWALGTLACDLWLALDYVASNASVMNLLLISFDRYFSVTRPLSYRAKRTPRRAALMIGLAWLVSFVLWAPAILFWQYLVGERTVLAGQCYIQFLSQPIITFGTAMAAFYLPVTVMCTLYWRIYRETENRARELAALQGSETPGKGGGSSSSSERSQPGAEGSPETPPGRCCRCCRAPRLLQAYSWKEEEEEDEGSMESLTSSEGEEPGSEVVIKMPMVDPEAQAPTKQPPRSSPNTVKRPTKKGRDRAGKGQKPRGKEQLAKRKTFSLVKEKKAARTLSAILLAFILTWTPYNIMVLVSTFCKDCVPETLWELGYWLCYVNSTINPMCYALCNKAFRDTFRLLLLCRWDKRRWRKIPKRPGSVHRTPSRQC
Summary of the method: (§1)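 Calcium mobilization in CHO-K1 cells stably expressing hM1, Fluo-4 loaded; 11-point 1:3 compound series added at 4 s, acetylcholine EC20 at 144 s, kinetic fluorescence ratio at 1 Hz. Agonism: rise on compound alone, Emax relative to acetylcholine maximum; PAM: potentiation of EC20 response; four-parameter logistic fits.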

human mAChR M1 [2] = biological target: T1, human mAChR M1; assay: mAChR M1 cell-based functional assay (calcium mobilization), PAM activity: increase in the EC20 acetylcholine response; conditions: CHO-K1 cells expressing hM1; calcium flux (Fluo-4); potentiation of EC20 acetylcholine response
Summary of the method: as §1

Compound: Cn1cc(-c2ccc(Cc3cc(C(=O)NC[C@@H]4CCCO4)nc(-c4ccn(C)n4)c3)cn2)cn1 [Compound 7, (S)-6-(1-methyl-1H-pyrazol-3-yl)-4-((6-(1-methyl-1H-pyrazol-4-yl)pyridin-3-yl)methyl)-N-((tetrahydrofuran-2-yl)methyl)picolinamide]
- pEC50 (human mAChR M1 [1]): < 5.00
- Emax (human mAChR M1 [1]): < 5%
- Emax (human mAChR M1 [2]): 38%

Compound: Cc1nc(-c2ccc(Cc3cc(C(=O)N[C@H]4CCOC[C@@H]4O)nc(-n4cccn4)c3)cc2)co1 [Compound 19, N-((3R,4S)-3-hydroxytetrahydro-2H-pyran-4-yl)-4-(4-(2-methyloxazol-4-yl)benzyl)-6-(1H-pyrazol-1-yl)picolinamide]
- pEC50 (human mAChR M1 [1]): < 5.00
- Emax (human mAChR M1 [1]): < 5%
- pEC50 (human mAChR M1 [2]): 5.71
- Emax (human mAChR M1 [2]): 88%

Compound: Cc1c(Cc2ccc(-c3ccn(C)n3)cc2)cc(C(=O)NC[C@@H]2CCCO2)nc1-c1ccn(C)n1 [Compound 15, (S)-5-methyl-6-(1-methyl-1H-pyrazol-3-yl)-4-(4-(1-methyl-1H-pyrazol-3-yl)benzyl)-N-((tetrahydrofuran-2-yl)methyl)picolinamide]
- pEC50 (human mAChR M1 [1]): < 5.00
- Emax (human mAChR M1 [1]): < 5%
- pEC50 (human mAChR M1 [2]): 5.34
- Emax (human mAChR M1 [2]): 82%

Compound: Cc1ccc(Cc2cc(C(=O)N[C@H]3CCOC[C@@H]3O)nc(-c3ccn(C)n3)c2C)cn1 [Compound 65, N-((3R,4S)-3-hydroxytetrahydro-2H-pyran-4-yl)-5-methyl-6-(1-methyl-1H-pyrazol-3-yl)-4-((6-methylpyridin-3-yl)methyl)picolinamide]
- pEC50 (human mAChR M1 [1]): < 5.00
- Emax (human mAChR M1 [1]): < 5%
- Emax (human mAChR M1 [2]): 71%

Compound: Cc1c(Cc2ccc(-c3ccn(C)n3)cc2)cc(C(=O)N[C@H]2CCCC[C@@H]2O)nc1-c1ccn(C)n1 [Compound 10, N-((1S,2S)-2-hydroxycyclohexyl)-5-methyl-6-(1-methyl-1H-pyrazol-3-yl)-4-(4-(1-methyl-1H-pyrazol-3-yl)benzyl)picolinamide]
- pEC50 (human mAChR M1 [1]): ≤ 5.00
- Emax (human mAChR M1 [1]): 13%
- pEC50 (human mAChR M1 [2]): 6.04
- Emax (human mAChR M1 [2]): 86%

Compound: Cn1cc(-c2ccc(Cc3cc(C(=O)N[C@H]4CCCC[C@@H]4O)nc(-c4ccn(C)n4)c3)cn2)cn1 [Compound 3, N-((1S,2S)-2-hydroxycyclohexyl)-6-(1-methyl-1H-pyrazol-3-yl)-4-((6-(1-methyl-1H-pyrazol-4-yl)pyridin-3-yl)methyl)picolinamide]
- pEC50 (human mAChR M1 [1]): < 5.00
- Emax (human mAChR M1 [1]): < 5%
- pEC50 (human mAChR M1 [2]): 5.40
- Emax (human mAChR M1 [2]): 90%

Compound: Cc1nc(-c2ccc(Cc3cc(C(=O)N[C@H]4CCCC[C@@H]4O)nc(-n4cccn4)c3C)cc2)co1 [Compound 48, N-((1S,2S)-2-hydroxycyclohexyl)-5-methyl-4-(4-(2-methyloxazol-4-yl)benzyl)-6-(1H-pyrazol-1-yl)picolinamide]
- pEC50 (human mAChR M1 [1]): 5.07
- Emax (human mAChR M1 [1]): 10%
- pEC50 (human mAChR M1 [2]): 6.08
- Emax (human mAChR M1 [2]): 59%

Compound: Cc1c(Cc2ccc(-c3ccn(C)n3)cc2)cc(C(=O)NCC2CCOCC2)nc1-c1ccn(C)n1 [Compound 14, 5-methyl-6-(1-methyl-1H-pyrazol-3-yl)-4-(4-(1-methyl-1H-pyrazol-3-yl)benzyl)-N-((tetrahydro-2H-pyran-4-yl)methyl)picolinamide]
- pEC50 (human mAChR M1 [1]): < 5.00
- Emax (human mAChR M1 [1]): < 5%
- Emax (human mAChR M1 [2]): 74%

Compound: Cc1c(Cc2ccc(-c3ccn(C)n3)cc2)cc(C(=O)N[C@H]2CCC[C@@H]2O)nc1-n1cccn1 [Compound 43, N-((1S,2S)-2-hydroxycyclopentyl)-5-methyl-4-(4-(1-methyl-1H-pyrazol-3-yl)benzyl)-6-(1H-pyrazol-1-yl)picolinamide]
- pEC50 (human mAChR M1 [1]): ≤ 5.00
- Emax (human mAChR M1 [1]): 14%
- pEC50 (human mAChR M1 [2]): 5.89
- Emax (human mAChR M1 [2]): 85%

Compound: Cn1cc(-c2ccc(Cc3cc(C(=O)NC4CC5(COC5)C4)nc(-c4ccn(C)n4)c3)cn2)cn1 [Compound 5, 6-(1-methyl-1H-pyrazol-3-yl)-4-((6-(1-methyl-1H-pyrazol-4-yl)pyridin-3-yl)methyl)-N-(2-oxaspiro[3.3]heptan-6-yl)picolinamide]
- pEC50 (human mAChR M1 [1]): < 5.00
- Emax (human mAChR M1 [1]): < 5%
- Emax (human mAChR M1 [2]): 52%
